Values of other authors, collected in PubChem BioAssay AID1259409 (Chemical Carcinogenesis Research Information System (CCRIS), 2018).

Test system: rodent chemically induced tumor inhibition, incidence and multiplicity
Assay: CCRIS tumor inhibitor studies

Q: With `CSCC[C@H](N)C(=O)O` as the compound, how does the “tumour outcome (control, treated, inhibition, significance)” value (Carcinogen: 7,12-DIMETHYLBENZ[A]ANTHRACENE, 57-97-6, Dose [Inhibitor]: 0.06 MMOL/G DIET DAILY FOR 17 WK STARTING 1 WK PRIOR TO CARCINOGEN TREATMENT AND CONTINUING THROUGH THE END OF THE STUDY, Route [Inhibitor]: ORAL, Species: RAT, Strain/Sex: SPRAGUE-DAWLEY/FEMALE, Target Tissue: Type of Lesion: MAMMARY GLAND: TUMOR, Dose [Carcinogen]: 12 MG IN 1 ML OLIVE OIL ONCE, Promoter: NONE USED) read?
A: 59%, 72%, -22%, not calculated

Q: What about the “tumour outcome (control, treated, inhibition, significance)” value (Carcinogen: N-METHYL-N'-NITRO-N-NITROSOGUANADINE, 70-25-7, Dose [Inhibitor]: 0, 150 MG/KG BW 1/2 D FOR 26 WK BEGINNING POST CARCINOGEN TREATMENT (STUDY DURATION: 52 WK), Route [Inhibitor]: SUBCUTANEOUS, Species: RAT, Strain/Sex: WISTAR/MALE, Target Tissue: Type of Lesion: STOMACH: ADENOCARCINOMA, Dose [Carcinogen]: 25 UG/ML IN DRINKING WATER FOR 25 WK, Promoter: AMMONIUM ACETATE, 631-61-8, SODIUM HYPOCHLORITE, 7681-52-9, Promoter: AMMONIUM ACETATE, 631-61-8, SODIUM HYPOCHLORITE, 7681-52-9) of the same compound?
A: 19/19 (100%), 9/18 (50%), 50%, p<0.01

Q: And the “tumour outcome (control, treated, inhibition, significance)” value (Carcinogen: N-NITROSOBIS(2-OXOPROPYL)AMINE [60559-38-4], Dose [Inhibitor]: 2% IN DIET FOR 27 WK BEGINNING IMMEDIATELY POST LAST CARCINOGEN DOSE (STUDY DURATION: 32 WK), Route [Inhibitor]: ORAL, Species: HAMSTER, Strain/Sex: SYRIAN/FEMALE, Target Tissue: Type of Lesion: PANCREAS: ADENOCARCINOMA, Dose [Carcinogen]: 10 MG/KG BW 1X/WK FOR 5 WK (STUDY DURATION: 32 WK), Promoter: NONE)?
A: 20/28 (71.4%), 7/19 (36.8%), 48%, p<0.05

Q: What does the source list for `CCCCNC(=O)/C=C(C)/C=C/C=C(C)/C=C/C1=C(C)CCCC1(C)C`?
A: tumour outcome (control, treated, inhibition, significance) (Carcinogen: N-BUTYL-N-(4-HYDROXYBUTYL)NITROSAMINE, 3817-11-6, Dose [Inhibitor]: 1.5 MMOL/KG DIET DAILY FOR 133 D STARTING ONE WK AFTER THE FINAL CARCINOGEN DOSE (STUDY DURATION: 190 D), Route [Inhibitor]: ORAL, Species: MOUSE, Strain/Sex: BDF/MALE, Target Tissue: Type of Lesion: URINARY BLADDER: TRANSITIONAL CELL CARCINOMA, Dose [Carcinogen]: 7.5 MG 1/WK FOR 8 WK, Promoter: NONE USED): 21/100 (21%), 19/100 (19%), 10%, not significant; tumour outcome (control, treated, inhibition, significance) (Carcinogen: N-BUTYL-N-(4-HYDROXYBUTYL)NITROSAMINE, 3817-11-6, Dose [Inhibitor]: 1.5 MMOL/KG IN DIET FOR 133 D STARTING 1 WK AFTER THE LAST CARCINOGEN DOSE (STUDY DURATION: 190 D), Route [Inhibitor]: ORAL, Species: MOUSE, Strain/Sex: DBF1/MALE, Target Tissue: Type of Lesion: URINARY BLADDER: TRANSITIONAL CELL CARCINOMA, Dose [Carcinogen]: 7.5 MG 1/WK FOR 8 WK, Promoter: NONE USED): 21/100 (21%), 19/100 (19%), 10%, not significant

Q: Which “tumour outcome (control, treated, inhibition, significance)” value (Carcinogen: 7,12-DIMETHYLBENZ[A]ANTHRACENE, 57-97-6, Dose [Inhibitor]: 0, 75 MG/KG DIET FOR 20 D BEGINNING 10 D PRIOR TO CARCINOGEN DOSE (STUDY DURATION: 130 D), Route [Inhibitor]: ORAL, Species: RAT, Strain/Sex: SPRAGUE-DAWLEY/FEMALE, Target Tissue: Type of Lesion: MAMMARY GLAND: TUMOR, Dose [Carcinogen]: 15 MG IN 0.1 ML OF SESAME OIL ONCE, Promoter: NONE USED) does the source give for `O=C1CC[C@@]2(O)[C@H]3Cc4ccc(O)c5c4[C@@]2(CCN3CC2CC2)[C@H]1O5` here?
A: 100%, 73%, 27%, not significant

Q: And the “tumour outcome (control, treated, inhibition, significance)” value (Carcinogen: 7,12-DIMETHYLBENZ[A]ANTHRACENE, 57-97-6, Dose [Inhibitor]: 0, 75 MG/KG DIET FOR 109 D BEGINNING 11 D POST CARCINOGEN DOSE (STUDY DURATION: 130 D), Route [Inhibitor]: ORAL, Species: RAT, Strain/Sex: SPRAGUE-DAWLEY/FEMALE, Target Tissue: Type of Lesion: MAMMARY GLAND: TUMOR, Dose [Carcinogen]: 15 MG IN 0.1 ML OF SESAME OIL ONCE, Promoter: NONE USED)?
A: 92%, 36%, 61%, p=0.0024

Q: And the “tumour outcome (control, treated, inhibition, significance)” value (Carcinogen: 7,12-DIMETHYLBENZ[A]ANTHRACENE, 57-97-6, Dose [Inhibitor]: 0, 75 MG/KG DIET FOR 130 D BEGINNING 10 D PRIOR TO CARCINOGEN DOSE (STUDY DURATION: 130 D), Route [Inhibitor]: ORAL, Species: RAT, Strain/Sex: SPRAGUE-DAWLEY/FEMALE, Target Tissue: Type of Lesion: MAMMARY GLAND: TUMOR, Dose [Carcinogen]: 15 MG IN 0.1 ML OF SESAME OIL ONCE, Promoter: NONE USED)?
A: 83%, 46%, 45%, p=0.053

Q: And the “tumour outcome (control, treated, inhibition, significance)” value (Carcinogen: DIMETHYLBENZ[A]ANTHRACENE, 57-97-6, Dose [Inhibitor]: 0, 1 MG/KG/D ADMINISTERED TO RESTRAINT-STRESSED RATS BEGINNING 2 DAYS POST CARCINOGEN DOSE AND CONTINUING FOR 18 WK (STU, Route [Inhibitor]: INTRAPERITONEAL, Species: RAT, Strain/Sex: F344/FEMALE, Target Tissue: Type of Lesion: MAMMARY GLAND: TUMOR, Dose [Carcinogen]: 15 MG/ML SESAME OIL ONCE, Promoter: NONE USED)?
A: 32%, 12%, 63%, not calculated

Q: And the “tumour outcome (control, treated, inhibition, significance)” value (Carcinogen: DIMETHYLBENZ[A]ANTHRACENE, 57-97-6, Dose [Inhibitor]: 0, 1 MG/KG/D BEGINNING 2 DAYS POST CARCINOGEN DOSE AND CONTINUING FOR 18 WK (STUDY DURATION: 18 WK), Route [Inhibitor]: INTRAPERITONEAL, Species: RAT, Strain/Sex: F344/FEMALE, Target Tissue: Type of Lesion: MAMMARY GLAND: TUMOR, Dose [Carcinogen]: 15 MG/ML SESAME OIL ONCE, Promoter: NONE USED)?
A: 27%, 15%, 44%, not calculated

Q: With `CC(C)[C@H]1C=C[C@H](O)CC1` as the compound, how does the “tumour outcome (control, treated, inhibition, significance)” value (Carcinogen: 7,12-DIMETHYLBENZ[A]ANTHRACENE, 57-97-6, Dose [Inhibitor]: 0, 12 NMOL PER REPEATED APPLICATION FOR 20 WK (STUDY DURATION: 20 WK), Route [Inhibitor]: DERMAL, Species: MOUSE, Strain/Sex: CD-1/FEMALE, Target Tissue: Type of Lesion: SKIN: TUMOR, Dose [Carcinogen]: 100 UG ONCE, Promoter: OKADAIC ACID, 78111-17-8) read?
A: 87%, 53%, 39%, not calculated

Q: For `CC(C(=O)O)c1cccc(C(=O)c2ccccc2)c1` (configuration not stated), which “tumour outcome (control, treated, inhibition, significance)” value (Carcinogen: AZOXYMETHANE, 25843-45-2, Dose [Inhibitor]: 0, 100 PPM IN DIET BEGINNING 1 WK PRIOR TO CARCINOGEN TREATMENT FOR DURATION OF STUDY (STUDY DURATION: 54 WK), Route [Inhibitor]: ORAL, Species: RAT, Strain/Sex: F344/MALE, Target Tissue: Type of Lesion: COLON: ADENOCARCINOMA, Dose [Carcinogen]: 15 MG/KG/BW 1/WK FOR 2 WK, Promoter: NONE USED) is on record?
A: 58%, 56%, 3%, not calculated

Q: What about the “tumour outcome (control, treated, inhibition, significance)” value (Carcinogen: AZOXYMETHANE, 25843-45-2, Dose [Inhibitor]: 0, 100 PPM IN DIET BEGINNING 1 WK TO CARCINOGEN TREATMENT FOR DURATION OF STUDY (STUDY DURATION: 54 WK), Route [Inhibitor]: ORAL, Species: RAT, Strain/Sex: F344/MALE, Target Tissue: Type of Lesion: COLON: ADENOMA, Dose [Carcinogen]: 15 MG/KG/BW 1/WK FOR 2 WK, Promoter: NONE USED) of the same compound?
A: 6%, 3%, 50%, not calculated

Q: And the “tumour outcome (control, treated, inhibition, significance)” value (Carcinogen: AZOXYMETHANE, 25843-45-2, Dose [Inhibitor]: 0, 200 PPM IN DIET BEGINNING 1 WK PRIOR TO CARCINOGEN TREATMENT FOR DURATION OF STUDY (STUDY DURATION: 54 WK), Route [Inhibitor]: ORAL, Species: RAT, Strain/Sex: F344/MALE, Target Tissue: Type of Lesion: COLON: ADENOCARCINOMA, Dose [Carcinogen]: 15 MG/KG/BW 1/WK FOR 2 WK, Promoter: NONE USED)?
A: 58%, 28%, 52%, p<0.01

Q: What about the “tumour outcome (control, treated, inhibition, significance)” value (Carcinogen: AZOXYMETHANE, 25843-45-2, Dose [Inhibitor]: 0, 200 PPM IN DIET BEGINNING 1 WK PRIOR TO CARCINOGEN TREATMENT FOR DURATION OF STUDY (STUDY DURATION: 54 WK), Route [Inhibitor]: ORAL, Species: RAT, Strain/Sex: F344/MALE, Target Tissue: Type of Lesion: COLON: ADENOMA, Dose [Carcinogen]: 15 MG/KG/BW 1/WK FOR 2 WK, Promoter: NONE USED) of the same compound?
A: 6%, 6%, 0%, not significant

Q: And the “tumour outcome (control, treated, inhibition, significance)” value (Carcinogen: N-BUTYL-N-(4-HYDROXYBUTYL)NITROSAMINE, 3817-11-6, Dose [Inhibitor]: 0, 40 MG/KG DIET FOR 24 WK BEGINNING 1 WK PRIOR TO CARCINOGEN TREATMENT (STUDY DURATION: 24 WK), Route [Inhibitor]: ORAL, Species: MOUSE, Strain/Sex: BDF/MALE, Target Tissue: Type of Lesion: URINARY BLADDER: TRANSITIONAL CELL CARCINOMA, Dose [Carcinogen]: 7.5 MG 1/WK FOR 8 WK, Promoter: NONE USED)?
A: 22/75 (29%), 5/73 (7%), 76%, p<0.01

Q: And the “tumour outcome (control, treated, inhibition, significance)” value (Carcinogen: N-BUTYL-N-(4-HYDROXYBUTYL)NITROSAMINE, 3817-11-6, Dose [Inhibitor]: 0, 80 MG/KG DIET FOR 24 WK BEGINNING 1 WK PRIOR TO CARCINOGEN TREATMENT (STUDY DURATION: 24 WK), Route [Inhibitor]: ORAL, Species: MOUSE, Strain/Sex: BDF/MALE, Target Tissue: Type of Lesion: URINARY BLADDER: TRANSITIONAL CELL CARCINOMA, Dose [Carcinogen]: 7.5 MG 1/WK FOR 8 WK, Promoter: NONE USED)?
A: 22/75 (29%), 4/72 (6%), 79%, p<0.01
